Measurements taken from patent publication US11999716B2, “WDR5 inhibitors and modulators” (priority 2018, dated 2024).
Where two headings read alike, the source gives them in different places.

Test system: MV4:11 human cancer cell lines
Assay: Cellular viability / anti-proliferative activity, CellTiter-Glo, 5 day protocol
Assay type: cell-based
Settings: Homo sapiens, MV4-11, 120 h, read-out: GI50 on cellular proliferation of MV4:11 human cancer cell lines
Method in brief: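 Compounds were tested over 22 two-fold dilutions starting at 30 μM in 0.3% DMSO, with 200 cells per well (7200 cells/mL). Viability was measured by CellTiter-Glo luminescence at day 5.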

[1] = MV4:11 cells, 5 day incubation, CellTiter-Glo, mean of minimum two replicates

| Compound | GI50 [1] [nM] | GI50 [nM] |
| --- | --- | --- |
| COc1ccnc(CN2CCc3c(cc(CNC4=NCCO4)cc3-c3cn(C)nc3C)C2=O)c1 [Example 134, 7-(((4,5-Dihydrooxazol-2-yl)amino)methyl)-5-(1,3-dimethyl-1H-pyrazol-4-yl)-2-((4-methoxypyridin-2-yl)methyl)-3,4-dihydroisoquinolin-1(2H)-one] | > 938 | – |
| COc1ccnc([C@H](C)N2CCc3c(cc(Cn4ccoc4=N)cc3-c3cn(C)nc3C(F)(F)F)C2=O)c1 [Example 93, (S)-7-((2-Iminooxazol-3(2H)-yl)methyl)-2-(1-(4-methoxypyridin-2-yl)ethyl)-5-(1-methyl-3-(trifluoromethyl)-1H-pyrazol-4-yl)-3,4-dihydroisoquinolin-1(2H)-one] | < 50 | – |
| COc1ccnc([C@H](C)N2CCc3c(cc(Cn4ccnc4C)cc3-c3cnccc3C)C2=O)c1 [Example 196, (S)-2-(1-(4-Methoxypyridin-2-yl)ethyl)-7-((2-methyl-1H-imidazol-1-yl)methyl)-5-(4-methylpyridin-3-yl)-3,4-dihydroisoquinolin-1(2H)-one] | 936 | – |
| COc1ccnc([C@H](C2CC2)N2CCc3c(cc(Cn4ccnc4)cc3-c3cn(C)nc3C(F)(F)F)C2=O)c1 [Example 252, (S)-7-((1H-Imidazol-1-yl)methyl)-2-(cyclopropyl(4-methoxypyridin-2-yl)methyl)-5-(1-methyl-3-(trifluoromethyl)-1H-pyrazol-4-yl)-3,4-dihydroisoquinolin-1(2H)-one] | < 50 | – |
| COc1cc(CN2CCc3c(cc(CN4CCCC4=N)cc3-c3ccc(F)cc3C)C2=O)cc(OC)c1 [Example 113, 2-(3,5-Dimethoxybenzyl)-5-(4-fluoro-2-methylphenyl)-7-((2-iminopyrrolidin-1-yl)methyl)-3,4-dihydroisoquinolin-1(2H)-one] | 462 | – |
| Cc1ccnc([C@@H](C2CC2)N2CCc3c(cc(Cn4ccn(C)c4=N)cc3-c3ccc(F)cc3C)C2=O)c1 [Example 33, (R)-2-(Cyclopropyl(4-methylpyridin-2-yl)methyl)-5-(4-fluoro-2-methylphenyl)-7-((2-imino-3-methyl-2,3-dihydro-1H-imidazol-1-yl)methyl)-3,4-dihydroisoquinolin-1(2H)-one] | 553 | – |
| COc1ccnc([C@H](C)N2CCc3c(cc(Cn4ccnc4C)cc3-c3ccncc3C)C2=O)c1 [Example 224, (S)-2-(1-(4-Methoxypyridin-2-yl)ethyl)-7-((2-methyl-1H-imidazol-1-yl)methyl)-5-(3-methylpyridin-4-yl)-3,4-dihydroisoquinolin-1(2H)-one] | 72 | – |
| Cn1ccn(Cc2cc3c(cc2F)CCN(Cc2ccc(Cl)c(Cl)c2)C3=O)c1=N [Example 26, 2-(3,4-Dichlorobenzyl)-6-fluoro-7-((2-imino-3-methyl-2,3-dihydro-1H-imidazol-1-yl)methyl)-3,4-dihydroisoquinolin-1(2H)-one] | > 938 | – |
| COc1ccnc([C@H](C)N2CCc3c(cc(Cn4ccn(C)c4=N)cc3-c3cn(C)nc3C(F)(F)F)C2=O)c1 [Example 71, (S)-7-((2-Imino-3-methyl-2,3-dihydro-1H-imidazol-1-yl)methyl)-2-(1-(4-methoxypyridin-2-yl)ethyl)-5-(1-methyl-3-(trifluoromethyl)-1H-pyrazol-4-yl)-3,4-dihydroisoquinolin-1(2H)-one] | < 50 | – |
| COc1ccnc([C@H](C)N2CCc3c(cc(Cn4ccnc4C)cc3-c3cccnc3C)C2=O)c1 [Example 202, (S)-2-(1-(4-Methoxypyridin-2-yl)ethyl)-7-((2-methyl-1H-imidazol-1-yl)methyl)-5-(2-methylpyridin-3-yl)-3,4-dihydroisoquinolin-1(2H)-one] | 230 | – |
| COc1ccnc(CN2CCc3c(cc(Cn4ccn(C)c4=N)cc3-c3ccc(F)cc3C)C2=O)c1 [Example 52, 5-(4-fluoro-2-methylphenyl)-7-((2-imino-3-methyl-2,3-dihydro-1H-imidazol-1-yl)methyl)-2-((4-methoxypyridin-2-yl)methyl)-3,4-dihydroisoquinolin-1(2H)-one] | < 50 | – |
| COc1cc(CN2CCc3c(cc(CN4CCSC4=N)cc3-c3ccc(F)cc3C)C2=O)cc(OC)c1 [Example 100, 2-(3,5-Dimethoxybenzyl)-5-(4-fluoro-2-methylphenyl)-7-((2-iminothiazolidin-3-yl)methyl)-3,4-dihydroisoquinolin-1(2H)-one] | 269 | – |
| COc1cc(CN2CCc3c(cc(Cn4cnn(C)c4=N)cc3-c3cn(C)nc3C(F)(F)F)C2=O)cc(OC)c1 [Example 122, 2-(3,5-Dimethoxybenzyl)-7-((5-imino-1-methyl-1,5-dihydro-4H-1,2,4-triazol-4-yl)methyl)-5-(1-methyl-3-(trifluoromethyl)-1H-pyrazol-4-yl)-3,4-dihydroisoquinolin-1(2H)-one] | < 50 | – |
| CCn1cc(-c2cc(Cc3cncn3C)cc3c2CCN([C@@H](C)c2cc(OC)ccn2)C3=O)c(C(F)(F)F)n1 [Example 257, (S)-5-(1-Ethyl-3-(trifluoromethyl)-1H-pyrazol-4-yl)-2-(1-(4-methoxypyridin-2-yl)ethyl)-7-((1-methyl-1H-imidazol-5-yl)methyl)-3,4-dihydroisoquinolin-1(2H)-one] | – | < 50 |
| COc1cc(CN2CCc3c(cc(Cn4ccn(C)c4=N)cc3-c3ccc(C)nc3C)C2=O)cc(OC)c1 [Example 68, 2-(3,5-Dimethoxybenzyl)-5-(2,6-dimethylpyridin-3-yl)-7-((2-imino-3-methyl-2,3-dihydro-1H-imidazol-1-yl)methyl)-3,4-dihydroisoquinolin-1(2H)-one] | 333 | – |

Second part, led by results:

| GI50 [1] [nM] | Compound | GI50 [nM] |
| --- | --- | --- |
| < 50 | COc1ccnc([C@H](C)N2CCc3c(cc(Cn4ccnc4C)cc3-c3c[nH]nc3C(F)(F)F)C2=O)c1 [Example 237, (S)-2-(1-(4-methoxypyridin-2-yl)ethyl)-7-((2-methyl-1H-imidazol-1-yl)methyl)-5-(3-(trifluoromethyl)-1H-pyrazol-4-yl)-3,4-dihydroisoquinolin-1(2H)-one] | – |
| 2000 | Cc1nccn1Cc1cc2c(c(-c3cn(C)nc3C(F)(F)F)c1)CCN(CC1CCCCO1)C2=O (centres unmarked) [Example 169, 7-((2-Methyl-1H-imidazol-1-yl)methyl)-5-(1-methyl-3-(trifluoromethyl)-1H-pyrazol-4-yl)-2-((tetrahydro-2H-pyran-2-yl)methyl)-3,4-dihydroisoquinolin-1(2H)-one] | – |
| 2090 | Cc1nccn1Cc1cc2c(c(-c3cn(C)nc3C(F)(F)F)c1)CCN(c1ccc(F)cc1OCC1CC1)C2=O [Example 253, 2-(2-(Cyclopropylmethoxy)-4-fluorophenyl)-7-((2-methyl-1H-imidazol-1-yl)methyl)-5-(1-methyl-3-(trifluoromethyl)-1H-pyrazol-4-yl)-3,4-dihydroisoquinolin-1(2H)-one] | – |
| 62 | CC[C@H](c1cncc(C)c1)N1CCc2c(cc(Cn3ccnc3C)cc2-c2cn(C)nc2C(F)(F)F)C1=O [Example 198, (R)-7-((2-Methyl-1H-imidazol-1-yl)methyl)-5-(1-methyl-3-(trifluoromethyl)-1H-pyrazol-4-yl)-2-(1-(5-methylpyridin-3-yl)propyl)-3,4-dihydroisoquinolin-1(2H)-one] | – |
| < 50 | CCc1ccnc([C@H](C)N2CCc3c(cc(Cn4ccnc4)cc3-c3cn(C)nc3C(F)(F)F)C2=O)c1 [Example 191, (S)-7-((1H-Imidazol-1-yl)methyl)-2-(1-(4-ethylpyridin-2-yl)ethyl)-5-(1-methyl-3-(trifluoromethyl)-1H-pyrazol-4-yl)-3,4-dihydroisoquinolin-1(2H)-one] | – |
| < 50 | Cc1nccn1Cc1cc2c(c(-c3cn(C)nc3C(F)(F)F)c1)CCN(Cc1cc(Br)ccn1)C2=O [Example 205, 2-((4-Bromopyridin-2-yl)methyl)-7-((2-methyl-1H-imidazol-1-yl)methyl)-5-(1-methyl-3-(trifluoromethyl)-1H-pyrazol-4-yl)-3,4-dihydroisoquinolin-1(2H)-one] | – |
| < 50 | Cc1cc2c(c(CN3CCc4c(cc(Cn5ccnc5C)cc4-c4cn(C)nc4C(F)(F)F)C3=O)c1)OCC2 [Example 218, 7-((2-Methyl-1H-imidazol-1-yl)methyl)-2-((5-methyl-2,3-dihydrobenzofuran-7-yl)methyl)-5-(1-methyl-3-(trifluoromethyl)-1H-pyrazol-4-yl)-3,4-dihydroisoquinolin-1(2H)-one] | – |
| < 50 | Cc1cc(CN2CCc3c(cc(Cn4ccnc4C)cc3-c3cn(C)nc3C(F)(F)F)C2=O)cnc1C [Example 241, 2-((5,6-Dimethylpyridin-3-yl)methyl)-7-((2-methyl-1H-imidazol-1-yl)methyl)-5-(1-methyl-3-(trifluoromethyl)-1H-pyrazol-4-yl)-3,4-dihydroisoquinolin-1(2H)-one] | – |
| < 50 | Cc1cc(C)nc([C@H](C)N2CCc3c(cc(Cn4ccnc4C)cc3-c3cn(C)nc3C(F)(F)F)C2=O)c1 [Example 165, (S)-2-(1-(4,6-Dimethylpyridin-2-yl)ethyl)-7-((2-methyl-1H-imidazol-1-yl)methyl)-5-(1-methyl-3-(trifluoromethyl)-1H-pyrazol-4-yl)-3,4-dihydroisoquinolin-1(2H)-one] | – |
| < 50 | Cc1cc(CN2CCc3c(cc(Cn4ccnc4C)cc3-c3cn(C)nc3C(F)(F)F)C2=O)cnc1Cl [Example 213, 2-((6-Chloro-5-methylpyridin-3-yl)methyl)-7-((2-methyl-1H-imidazol-1-yl)methyl)-5-(1-methyl-3-(trifluoromethyl)-1H-pyrazol-4-yl)-3,4-dihydroisoquinolin-1(2H)-one] | – |
| < 50 | Cc1cncc(CN2CCc3c(cc(Cn4ccnc4C)cc3-c3cn(C)nc3C(F)(F)F)C2=O)c1 [Example 157, 7-((2-Methyl-1H-imidazol-1-yl)methyl)-5-(1-methyl-3-(trifluoromethyl)-1H-pyrazol-4-yl)-2-((5-methylpyridin-3-yl)methyl)-3,4-dihydroisoquinolin-1(2H)-one] | – |
